Assay [1] deals with protein kinase (PK) C zeta (ζ). Briefly: Phosphorylation of PKCζ in C2 cells (immunoblotting, confocal microscopy). It is filed as cell-based, human. To be noted: within 20 min. The source says:
To learn more about how AMP peptide could participate in the establishment of TJ structures and epithelial cell polarity during epithelial wound healing, attention was focused on protein kinase (PK) C zeta (ζ), an atypical PKC that appears to be required for assembly of TJs (Suzuki et al., 2001). PKCζ, presumably in its active form phospho-PKCζ, regulates TJs, apparently by interacting with several TJ-associated proteins including occludin, PAR-6, and PAR-3.
Background: Immunoblotting shows a protein as a band on a membrane.

The next assay relates to MDCK cells. As to the kind of experiment: Transepithelial electrical resistance (TER) of MDCK cell monolayers. It is filed as cell-based. How it is done:
Monolayer cultures of MDCK cells were grown on permeable polycarbonate filters (0.4-μm pore size) (Transell) in DMEM containing FBS (2%) without (control) or with peptide 77-97 (8 μg/ml) for 8 days. TER was measured 24 hr after the cells were plated, and at specified times thereafter using an epithelial volt-ohm meter (EVOM, Millipore). Following each measurement, medium containing FBS without or with peptide was changed (0, 48, and 144 hr), and additional peptide 77-97 (8 μg/ml) was added at 30 and 72 hr. At 72 hr, TER in cultures that received peptide 77-97 was twice as high as in control cultures. Values are means for 3 cultures; variance is <10% of the mean. TER was measured from 3 different areas on the filter.
(§1) Panel A: When a stable TER was reached (330 Ω·cm^2) in MDCK cell monolayers the medium was changed to DMEM containing FBS (0.2%), and either peptide 77-97 (8 μg/ml) or EGF (50 ng/ml). After 18 hr, peptide 77-97 or EGF were added to the specified wells. One hour later monochloramine (0.1 mM), like the other agents, was added to the apical and basal compartments of the Transwell. […] Panels B, C: Caco2/bbe (C2) subclone monolayers were grown on collagen-coated polycarbonate filters until a stable TER was reached (225 Ω·cm^2). Spent medium was replaced with fresh medium containing FBS (0.1%) alone or with peptide 77-97 (8 μg/ml). After 18 hr, monochloramine (0.3 mM, B) or indomethacin (0.1 mM, C) was added to both compartments of the Transwell. At time 0, cultures received either vehicle (control), vehicle plus oxidant or indomethacin, or peptide 77-97 and oxidant or indomethacin. TER of injured cultures treated with vehicle decreased by ˜35% at 90 min, whereas peptide-treated cultures declined ˜10%.

The test system of another assay is Caco2/bbe (C2) cells. Briefly: Transepithelial electrical resistance (TER) of Caco2/bbe (C2) cell monolayers after injury. Format: cell-based, human. As for the experimental part: as §1
C2 cell monolayers were grown in DMEM containing FBS (5%) and transferrin (10 μg/ml) on collagen-coated polycarbonate filters until a stable TER was reached (225 Ωcm^2). At time 0, cells were exposed to no DSS (control), or DSS (4%) in the upper compartment of the Transwell. AMP peptide 77-97 (8 μg/ml) was added to the upper and lower compartments of the Transwell 1 day prior to the addition of DSS at time 0. TER of DSS-injured cultures treated with vehicle decreased by ˜70% at 45 min, whereas peptide-treated cultures declined ˜10% at that time. […] Values are means for ≧6 cultures.
Confluent C2 cell monolayers were prepared on Transwells until a stable TER was established. Medium was replaced with fresh medium containing FBS (0.1%) alone (control), or with either rhAMP-18 (100 nanomolar) or peptide 77-97 (3.7 micromolar). After 18 hr, monochloramine (0.3 mM) was added to both compartments of the Transwell, and cultures received either vehicle (control), vehicle plus oxidant, rhAMP-18 and oxidant, or peptide 77-97 and oxidant, after which TER was measured.
To determine whether AMP peptide could speed recovery of TER after DSS-induced colonic cell injury, a highly sought-after functional characteristic of an agent designed to treat IBD, C2 cell monolayers were exposed to DSS (5%) for 10 min which reduced TER to 33±6% of the control value (FIG. 29, left panel). DSS was removed by aspirating the medium and replacing it with fresh medium. AMP peptide 77-97 (8 μg/ml) or vehicle was added to the culture medium, and TER was measured 18 hr later. In the presence of the vehicle, TER increased from 33% to 66±7% of the control value, whereas cells exposed to AMP peptide reached a value 112±4% of control.
To determine if the cytoprotective effect of AMP peptide is mediated at the level of the actin cytoskeleton, C2 cell monolayers were exposed to cytochalasin D, an agent known to disrupt actin filaments and compromise barrier function (Madara et al., 1986).
To determine if AMP peptide could play a cytoprotective role in GDS, a study was carried out in C2 cell monolayers that were exposed to the PA-I lectin. […] Next the effect of AMP peptide was studied in the mouse model of P. aeruginosa-induced-GDS (Laughlin et al., 2000) using female Balb/c mice subjected to 30% hepatectomy, injection of a solution of living P. aeruginosa into the cecum, and food deprivation postoperatively. All 8 of the mice survived surgery.

The subject of a further assay is Candida albicans. Briefly: Growth of other bacteria and fungi. It is filed as cell-based.

Entries after “also recorded” stand apart in the source; their conditions may differ.

For the sequence “LDALVKEKKLQGKGPGGPPPK [97–117, peptide 77-97 of the mature protein, same as 97-117 of the human precursor]”, the “phosphorylation of PKCζ” value in assay [1] is recorded as “increase in phosphorylation”. The “maturation of TER” value with MDCK cells (by 24 hr and to a greater extent thereafter) is “increases TER”. The “TER relative to control cultures” value in the assay on MDCK cells (peptide 8 μg/ml, at 72 hr) is “twice as high”. In addition, in the assay with Caco2/bbe (C2) cells (4 hr), the “TER after PA-I lectin (in words)” value is recorded as “nearly unchanged”. In the assay on Caco2/bbe (C2) cells (4 hr, vehicle ~22%), the “decline of TER after PA-I lectin” value was 0-5%. Besides, in the assay on Caco2/bbe (C2) cells (DSS 4%, 45 min, peptide 8 μg/ml 1 day prior, vehicle ~70%), the “decline of TER of DSS-injured cultures” value is listed as roughly 10%. Besides, in the assay on Caco2/bbe (C2) cells (DSS 5% for 10 min, peptide 8 μg/ml, vehicle 66±7%), the “TER 18 hr after removal of DSS” value is recorded as 112±4 % of control. In the assay on Caco2/bbe (C2) cells (cytochalasin D 0.01 μg/ml, 2 hr, peptide 8 μg/ml 18 hr pretreatment, vehicle -34%, listed as AMP peptide), the “TER after cytochalasin D” value is recorded as “did not decline significantly; also recorded: prevented the decline”. The “decline of TER of injured cultures” value in the assay on Caco2/bbe (C2) cells (monochloramine 0.3 mM or indomethacin 0.1 mM, 90 min, peptide 8 μg/ml, vehicle ~35%) is recorded as roughly 10%. In addition, in the assay on Caco2/bbe (C2) cells (monochloramine 0.3 mM, 45 min, rhAMP-18 100 nanomolar or peptide 3.7 micromolar pre-treatment, oxidant alone ~35%), the “decline in TER after monochloramine” value was roughly 10%. The “effect on TER of non-injured cells” value in the assay on Caco2/bbe (C2) cells (peptide 8 μg/ml) is “did not alter”. The “growth of Candida albicans” value with Candida albicans is recorded as “did not alter the growth”.

For the origin of these results see patent US7629317B2, “Control of growth and repair of gastro-intestinal tissues by gastrokines and inhibitors” (The University of Chicago, priority 2001, dated 2009).
